Where a name gives a salt, the structure may show the parent alone.
target: T1, G9a (Homo sapiens, UniProt Q96KQ7); assay: G9a AlphaLISA enzymatic activity assay; type: biochemical; settings: 0.15 nM G9a, 15 uM S-adenosyl-methionine, 100 nM biotinylated histone 3 peptide (1-21), 1 hour at room temperature; read-out: G9a in (uM) (IC50, concentration that produced 50% inhibition)
T1 sequence (Q96KQ7 1-1210): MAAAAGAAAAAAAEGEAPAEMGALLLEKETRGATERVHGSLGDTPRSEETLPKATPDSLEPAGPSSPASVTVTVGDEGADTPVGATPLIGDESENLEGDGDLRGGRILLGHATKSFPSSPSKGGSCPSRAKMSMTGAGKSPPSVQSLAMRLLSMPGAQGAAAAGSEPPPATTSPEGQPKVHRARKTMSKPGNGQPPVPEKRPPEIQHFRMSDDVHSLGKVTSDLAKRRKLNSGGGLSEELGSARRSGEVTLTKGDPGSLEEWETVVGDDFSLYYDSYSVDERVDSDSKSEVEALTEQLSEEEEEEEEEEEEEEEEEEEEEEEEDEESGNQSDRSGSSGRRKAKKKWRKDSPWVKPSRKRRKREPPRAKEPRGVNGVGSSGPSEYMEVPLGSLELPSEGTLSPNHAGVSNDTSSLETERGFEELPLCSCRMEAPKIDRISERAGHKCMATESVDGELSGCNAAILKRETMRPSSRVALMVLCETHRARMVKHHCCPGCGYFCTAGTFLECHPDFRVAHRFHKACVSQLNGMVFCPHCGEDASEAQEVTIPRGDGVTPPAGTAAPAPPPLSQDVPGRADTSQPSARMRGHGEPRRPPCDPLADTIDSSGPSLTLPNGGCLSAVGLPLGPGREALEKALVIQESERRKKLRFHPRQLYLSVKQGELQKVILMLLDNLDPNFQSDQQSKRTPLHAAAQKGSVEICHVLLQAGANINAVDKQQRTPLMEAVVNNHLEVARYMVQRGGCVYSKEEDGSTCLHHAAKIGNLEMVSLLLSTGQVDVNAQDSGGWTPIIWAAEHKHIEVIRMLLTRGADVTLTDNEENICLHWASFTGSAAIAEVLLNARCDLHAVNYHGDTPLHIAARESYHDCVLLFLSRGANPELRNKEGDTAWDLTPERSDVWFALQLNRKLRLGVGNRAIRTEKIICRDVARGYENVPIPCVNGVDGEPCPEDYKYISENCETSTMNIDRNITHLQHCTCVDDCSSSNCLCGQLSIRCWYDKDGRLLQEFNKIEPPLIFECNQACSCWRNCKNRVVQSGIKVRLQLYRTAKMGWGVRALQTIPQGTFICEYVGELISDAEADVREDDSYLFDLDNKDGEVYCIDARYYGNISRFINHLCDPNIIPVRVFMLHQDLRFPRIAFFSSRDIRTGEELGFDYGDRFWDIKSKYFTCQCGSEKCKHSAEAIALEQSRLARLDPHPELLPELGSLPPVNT
Source text: The G9a AlphaLISA assay was used to detect the methyl modifications of a biotinylated histone H3 peptide by the compounds. These modifications are done by the histone methyl transferase activity of the G9a enzyme. The assay consists of reading a chemiluminescent signal at 615 nm; this signal is generated by a laser excitation at 680 nm that transfers a reactive singlet oxygen between the donor beads and acceptor beads. Donor beads are streptavidin conjugated and bind to the biotin on the peptide. Acceptor beads are conjugated with an antibody that recognizes the specific G9a methyl mark on the peptide. If there is a methyl mark on the peptide, the acceptor beads will bind to the peptide. Upon binding, the acceptor beads will be in close proximity (<200 nm) of the donor beads and when the donor beads are excited, the transfer of the oxygen can occur and a strong signal will be generated. If there is no methyl mark, the interaction between beads will not occur and signal will be at background levels.
For the assay, the following buffer was used to set up reactions: 50 mM Tris-HCl pH9, 50 mM NaCl, 0.01% Tween-20 and 1 mM DTT (added fresh prior to starting the reactions). The assay is set up by adding a final concentration of 0.15 nM G9a, 15 uM S-adenosyl-methionine and, 100 nM biotinylated histone 3 peptide (1-21). The reaction is incubated at room temperature for 1 hour, and subsequently quenched by the addition of the acceptor beads (anti-H3k9me2 AlphaLISA acceptor beads, PerkinElmer # AL117) at a final concentration of 20 ug/mL. The acceptor beads are incubated for 1 hour. After 1 hour, the donor beads are added at a final concentration of 20 ug/mL (Alpha Streptavidin donor beads, PerkinElmer #6760002). Donor beads are incubated for 0.5 hours. Both donor and acceptor beads are resuspended in AlphaLISA 5X Epigenetics Buffer 1 Kit (PerkinElmer # AL008) prior to addition to the reaction. All manipulations and incubations with the donor and acceptor beads are done in subdued light. Signal is detected in an EnVision plate reader in Alpha mode (see ACS Med Chem Lett. 2014 Jan. 2; 5(2):205-9. doi: 10.1021/m1400496h. eCollection 2014. Discovery and development of potent and selective inhibitors of histone methyltransferase g9a.)
Percent inhibition was calculated for each compound dilution and the concentration that produced 50% inhibition was calculated. This value is presented as the IC50.

IC50 [µM]	SMILES
0.009	COc1cc2c3c(c(C(C)C)nc2cc1OCCCN1CCCC1)CCCCN3 [Example 81, 1-(3-{[10-methoxy-6-(propan-2-yl)-1H,2H,3H,4H,5H-azepino[3,2-c]quinolin-9-yl]oxy}propyl)pyrrolidine trifluoroacetate]
0.015	COc1cc2c3c(c(NC(C)C)nc2cc1OCCCN1CCCC1)CCC3 [Example 3, 8-methoxy-N-(propan-2-yl)-7-[3-(pyrrolidin-1-yl)propoxy]-1H,2H,3H-cyclopenta-[c]quinolin-4-amine trifluoroacetate]
4.3	COc1cc2nc(NC(C)C)c3c(c2cc1OCCCN1CCCC1)COC3 [Example 45, 7-methoxy-N-(propan-2-yl)-8-[3-(pyrrolidin-1-yl)propoxy]-1H,3H-furo[3,4-c]quinolin-4-amine]
0.047	CC[C@@H](C)Nc1nc2cc(OCCCN3CCCC3)c(OC)cc2c2c1CCC2 [Example 100, N-[(2R)-butan-2-yl]-8-methoxy-7-[3-(pyrrolidin-1-yl)propoxy]-1H,2H,3H-cyclopenta[c]quinolin-4-amine formate]
0.19	COc1cc2c3c(c(NC(C)=O)nc2cc1OCCCN1CCCC1)CCC3 [Example 14, N-{8-methoxy-7-[3-(pyrrolidin-1-yl)propoxy]-1H,2H,3H-cyclopenta[c]quinolin-4-yl}acetamide trifluoroacetate]
4.7	COc1cc2c3c(c(N[C@H]4CCC[C@@H]4O)nc2cc1OCCCN1CCCC1)CCC3 [Example 124, (1S,25)-2-({8-methoxy-7-[3-(pyrrolidin-1-yl)propoxy]-1H,2H,3H-cyclopenta[c]quinolin-4-yl}amino)cyclopentan-1-ol formate]
0.15	COc1cc2c3c(c(NCCc4ccccc4)nc2cc1OCCCN1CCCC1)CCC3 [Example 5, 8-methoxy-N-(2-phenylethyl)-7-[3-(pyrrolidin-1-yl)propoxy]-1H,2H,3H-cyclopenta[c]quinolin-4-amine trifluoroacetate]
0.006	CNc1nc2cc(OCCCN3CCCC3)c(OC)cc2c2c1CC(C)(C)N2 [Example 24, 8-methoxy-N,2,2-trimethyl-7-[3-(pyrrolidin-1-yl)propoxy]-1H,2H,3H-pyrrolo[3,2-c]quinolin-4-amine trifluoroacetate]
0.009	COc1ccc(CNc2nc3cc(OCCCN4CCCC4)c(OC)cc3c3c2CCC3)c(OC)c1 [Example 115, N-[(2,4-dimethoxyphenyl)methyl]-8-methoxy-7-[3-(pyrrolidin-1-yl)propoxy]-1H,2H,3H-cyclopenta[c]quinolin-4-amine formate]
0.32	COc1cc2c3c(c(NC4CC4)nc2cc1OCCCN1CCCC1)COCC3 [Example 55, N-cyclopropyl-9-methoxy-8-[3-(pyrrolidin-1-yl)propoxy]-1H,2H,4H-pyrano[3,4-c]-quinolin-5-amine formate]
0.97	COc1cc2c3c(c(NC4CC4)nc2cc1OCCCN1CCCC1)COC3 [Example 48, N-cyclopropyl-8-methoxy-7-[3-(pyrrolidin-1-yl)propoxy]-1H,3H-furo[3,4-c]quinolin-4-amine]
0.11	COc1cc2c3c(c(NC(C)C)nc2cc1OCCCN1CCCC1)CC(O)CC3 (stereo not drawn) [Example 68, 2-methoxy-6-[(propan-2-yl)amino]-3-[3-(pyrrolidin-1-yl)propoxy]-7,8,9,10-tetrahydrophenanthridin-8-ol trifluoroacetate]
3	COc1cc2c3c(c(NC4CCN(C(C)C)CC4)nc2cc1OCCCN1CCCC1)CCCC3 [Example 39, 2-methoxy-N-[1-(propan-2-yl)piperidin-4-yl]-3-[3-(pyrrolidin-1-yl)propoxy]-7,8,9,10-tetrahydrophenanthridin-6-amine trifluoroacetate]
0.013	COc1cc2c3c(c(C4CC4)nc2cc1OCCCN1CCCC1)CCC(C)(C)N3 [Example 76, 1-[3-({5-cyclopropyl-9-methoxy-2,2-dimethyl-1H,2H,3H,4H-benzo[h]1,6-naphthyridin-8-yl}oxy)propyl]pyrrolidine formate]
0.19	COc1cc2c3c(c(N4CCCC4)nc2cc1OCCCN1CCCC1)CCC3 [Example 10, 1-{8-methoxy-7-[3-(pyrrolidin-1-yl)propoxy]-1H,2H,3H-cyclopenta[c]quinolin-4-yl}pyrrolidine formate]
0.23	CNc1nc2cc(OCCCN3CCCC3)c(OC)cc2c2c1COC2 [Example 59, 8-methoxy-N-methyl-7-[3-(pyrrolidin-1-yl)propoxy]-1H,3H-furo[3,4-c]quinolin-4-amine formate]
0.043	CNc1nc2cc(OCCCN3CCCC3)c(OC)cc2c2c1CC(C)(C)C2 [Example 53, 8-methoxy-N,2,2-trimethyl-7-[3-(pyrrolidin-1-yl)propoxy]-1H,2H,3H-cyclopenta[c]quinolin-4-amine formate]
0.075	COc1cc2c3c(c(NCCSC)nc2cc1OCCCN1CCCC1)CCC3 [Example 120, 8-methoxy-N-[2-(methylsulfanyl)ethyl]-7-[3-(pyrrolidin-1-yl)propoxy]-1H,2H,3H-cyclopenta[c]quinolin-4-amine formate]
0.023	CC[C@H](C)Nc1nc2cc(OCCCN3CCCC3)c(OC)cc2c2c1CCC2 [Example 99, N-[(2S)-butan-2-yl]-8-methoxy-7-[3-(pyrrolidin-1-yl)propoxy]-1H,2H,3H-cyclopenta[c]quinolin-4-amine formate]
1.4	COc1cc2c3c(c(C4CCCCC4)nc2cc1OCCCN1CCCC1)CCC3 [Example 110, 1-[3-({4-cyclohexyl-8-methoxy-1H,2H,3H-cyclopenta[c]quinolin-7-yl}oxy)propyl]pyrrolidine trifluoroacetate]
0.17	COc1cc2c3c(c(-c4ccccc4)nc2cc1OCCCN1CCCC1)CC(C)(C)N3 [Example 114, 1-[3-({8-methoxy-2,2-dimethyl-4-phenyl-1H,2H,3H-pyrrolo[3,2-c]quinolin-7-yl}oxy)propyl]pyrrolidine formate]
1.3	COc1cc2c3c(cnc2cc1OCCCN1CCCC1)CCCC3 [Example 40, 2-methoxy-3-[3-(pyrrolidin-1-yl)propoxy]-7,8,9,10-tetrahydrophenanthridine trifluoroacetate]
0.037	COc1cc2c3c(c(NCC4CC4)nc2cc1OCCCN1CCCC1)CCC3 [Example 108, N-(cyclopropylmethyl)-8-methoxy-7-[3-(pyrrolidin-1-yl)propoxy]-1H,2H,3H-cyclopenta[c]quinolin-4-amine trifluoroacetate]
0.26	COc1cc2c3c(c(NC(C)C)nc2cc1OCCCN1CCCC1)COC3 [Example 46, 8-methoxy-N-(propan-2-yl)-7-[3-(pyrrolidin-1-yl)propoxy]-1H,3H-furo[3,4-c]quinolin-4-amine]

— patent US10829452B2, “Histone methyltransferase inhibitors” (GLOBAL BLOOD THERAPEUTICS, INC., priority 2016, dated 2020)
